Values of other authors in article PMC1976805, “Preclinical pharmacokinetics of benznidazole” (British Journal of Cancer, 1984).
Like-named read-outs stand apart in the source and are kept apart here.

Assays:
[1] = mice; ref Workman, 1980b and 1983; cited from earlier work
[2] = large crossbred dogs; ref Workman, 1980b and 1983; cited from earlier work
[3] = humans; ref Workman, 1980b and 1983; cited from earlier work
[4] = sheep; ref Miller, personal communication; cited from earlier work
[5] = ref Workman, 1980b and 1983, cited from earlier work
[6] = spontaneous dog neoplasms; ref Workman, 1980b and 1983; cited from earlier work
plasma proteins = details: ref Workman, 1980b and 1983; cited from earlier work
[7] = mice; ref Workman, 1980b and 1983; cited from earlier work; remark: listed apart in the source
[8] = EMT6 flank tumours; ref Workman, 1980b and 1983; cited from earlier work

**Q.** Which brain/whole plasma ratio [1] does the source give for COCC(O)Cn1ccnc1[N+](=O)[O-] (centres unmarked) [MISO, 1-(2-nitro-imidazol-1-yl)-3-methoxypropan-2-ol] here?
**A.** Its brain/whole plasma ratio is 90%.

**Q.** And the “elimination t1/2” value [2]?
**A.** Its value is 4 to 5 h.

**Q.** And the “usual average t1/2” value [3]?
**A.** Its value is 10 to 12 h.

**Q.** And the “elimination t1/2” value [4]?
**A.** The value was 0.667 to 1 h.

**Q.** And the “peripheral nerve/whole plasma ratio” value ([5]; dog)?
**A.** The value was 82%.

**Q.** What about the brain/whole plasma ratio ([5]; dogs) of the same compound?
**A.** Its brain/whole plasma ratio is 70%.

**Q.** And the tissue/whole plasma ratio [6]?
**A.** Its tissue/whole plasma ratio is 61%.

**Q.** What about the “appreciable plasma protein binding” value (plasma proteins) of the same compound?
**A.** The value was “does not occur”.

**Q.** What about the “elimination t1/2” value [7] of the same compound?
**A.** The value was 0.333 to 0.667 h.

**Q.** What about the “overall tissue/whole plasma ratio” value [8] of the same compound?
**A.** The value was 87%.

**Q.** What about the “steady-state tumour/whole plasma ratio (about)” value [8] of the same compound?
**A.** The value was “about 90%”.
